Publication PMC3433414, “Oral Administration of the Pimelic Diphenylamide HDAC Inhibitor HDACi 4b Is Unsuitable for Chronic Inhibition of HDAC Activity in the CNS In Vivo” (PLoS ONE, 2012)

What was measured:
[1] = Simulated gastric fluid stability; type: in vitro ADME
Protocol: Simulated gastric fluid (SGF), pH 1.2, was prepared containing 2 g/L sodium chloride, 3.2 g/L of pepsin, 0.7% (v/v) HCl. Gastric buffer, pH 1.2, was also prepared containing 2 g/L sodium chloride and 0.7% (v/v) HCl. Test compound (10 µM) was added to both fluids and samples were mixed at room temperature on an orbital shaker. At each time-point (0, 2 and 4 h) 50 µL of sample was added to 150 µL DMSO, mixed and analysed immediately. Samples were analysed by LC-UV (λ = 254 nm. The instrument responses (i.e. chromatographic peak areas) were referenced to the zero time-point samples (as 100%) in order to determine the percentage of compound remaining at each time-point.

catalytic domain HDAC4 = molecular target: T1, catalytic domain HDAC4 (Homo sapiens, UniProt P56524); test: Two-step fluorogenic deacetylase assay, recombinant HDAC4; type: biochemical; settings: up to 50 µM
T1 construct: catalytic domain HDAC4(αα 648–1057); purchased Emerald Biosciences (Seattle, WA)
Excerpt: (§1) To assess the biochemical and cellular potency of 4b and its conversion products/metabolites, we utilized the two-step fluorogenic assay which measures the HDAC-mediated catalytic conversion of synthetic acetylated lysine substrates. In brief, on deacetylation of the substrates by HDAC activity, a protease site is unmasked which allows subsequent trypsin-mediated cleavage and release of the highly flourescent AMC molecules in a subsequent step of the assay. The substrates used were Lys_Ac_AMC (Bachem I-1875) for HDAC3 and (Ac)Arg-Gly-Lys(Ac) (Bachem I-1925) for HDAC1 and HDAC2. […] However, the relatively labile and sterically more demanding trifluoracetyl group is readily hydrolyzed by the catalytically less avid Class IIa enzymes, allowing measurement of Class IIa activity using the 2-step fluorogenic assay. […]
(§2) For evaluation of the class selectivity of the compounds, we assessed inhibition against purified recombinant human full length HDAC1 (cat# 50051), HDAC2 (cat# 50052), HDAC3-NcoR2 (cat# 50003) and HDAC8 (cat# 50008): as representative of Class I activity; catalytic domain HDAC4(αα 648–1057), HDAC5 (αα 657–1123; cat # 50005), HDAC7 (αα 518-end; cat # 50007) and HDAC9 (αα 604–1066; cat # 50009) activity: representing all Class IIa activity; and full length HDAC6 (cat#50006): representing Class IIb activity. […]

FXN = tested on: FXN; parameters: method as in PMID 16921367; settings: cited from earlier work
human recombinant HDAC8 = molecular target: T2, human recombinant HDAC8 (Homo sapiens, UniProt Q9BY41); test: Two-step fluorogenic deacetylase assay, recombinant HDAC8; type: biochemical; settings: up to 50 µM
T2 construct: purified recombinant human full length HDAC1 (cat# 50051), HDAC2 (cat# 50052), HDAC3-NcoR2 (cat# 50003) and HDAC8 (cat# 50008); purchased BPS Bioscience (San Diego, CA) 50008
Excerpt: as §1, §2

HDACs = test: Biochemical HDAC assays (whole panel); parameters: species or system human; settings: up to 50 µM
Excerpt: as §1, §2

AR (h) = test: Cerep binding, agonist radioligand; parameters: species or system human; settings: 10 μM
Excerpt: In addition to the HDAC profiling performed, we also queried 4b for any apparent potential off-target effects, which could complicate any finding of efficacy or adverse events in vivo due to ‘polypharmacy’. This was accomplished by screening against a ‘diversity panel’ of 72 binding and 29 enzyme assays, comprised of roughly equal numbers of selective central and peripheral therapeutically relevant targets (Cerep Diversity Profile). This panel included representative targets from diverse enzyme families, G protein coupled receptors, steroid nuclear receptors, voltage- and ligand-gated ion channels. While not totally inclusive, it is a useful tool for discovery compounds to assess their viability as proof of concept molecules to specifically query a particular target. 4b was initially screened at 10 µM in duplicate. The full set of results is provided as Table S1. […] This clean in vitro profile was considered acceptable to proceed to ADME and pharmacokinetic studies.

T1 sequence (P56524 648-1057): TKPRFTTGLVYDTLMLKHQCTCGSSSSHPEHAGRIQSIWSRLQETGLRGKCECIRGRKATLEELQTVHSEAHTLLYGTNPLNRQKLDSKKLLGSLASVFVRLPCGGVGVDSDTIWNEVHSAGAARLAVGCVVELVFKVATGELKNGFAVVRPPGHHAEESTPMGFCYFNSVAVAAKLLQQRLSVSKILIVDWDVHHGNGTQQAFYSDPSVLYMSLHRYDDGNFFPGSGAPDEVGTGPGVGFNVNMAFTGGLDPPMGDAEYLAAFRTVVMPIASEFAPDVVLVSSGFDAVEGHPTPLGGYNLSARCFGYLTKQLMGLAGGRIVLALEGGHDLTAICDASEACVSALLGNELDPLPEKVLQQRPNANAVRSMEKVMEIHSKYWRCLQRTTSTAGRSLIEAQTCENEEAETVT
T2 sequence (Q9BY41 whole entry): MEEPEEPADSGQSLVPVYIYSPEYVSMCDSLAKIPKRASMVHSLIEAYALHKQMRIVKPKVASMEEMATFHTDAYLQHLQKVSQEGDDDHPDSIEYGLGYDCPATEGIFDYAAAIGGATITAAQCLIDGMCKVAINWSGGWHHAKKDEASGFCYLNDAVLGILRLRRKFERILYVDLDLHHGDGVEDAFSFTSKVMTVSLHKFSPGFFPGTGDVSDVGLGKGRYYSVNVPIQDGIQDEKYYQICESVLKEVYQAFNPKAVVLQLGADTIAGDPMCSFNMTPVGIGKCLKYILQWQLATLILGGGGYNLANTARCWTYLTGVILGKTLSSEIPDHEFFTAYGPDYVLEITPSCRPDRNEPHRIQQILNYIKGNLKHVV

| Compound | turnover in simulated gastric fluid ([1]; in 4 h) [%] | half-life at 10 µM ([1]; simulated gastric fluid (SGF), pH 1.2) [min] | activity against HDAC4 (catalytic domain HDAC4) | increase in FXN protein levels (FXN; at 2.5 µM) [fold] | enhancement of FXN mRNA (FXN; at 5 µM) [fold] | activity against HDAC8 (human recombinant HDAC8) | activity in the biochemical HDAC assays (HDACs) | % inhibition of control specific binding (AR (h)) [%] |
| --- | --- | --- | --- | --- | --- | --- | --- | --- |
| Nc1ccccc1NC(=O)CCCCCC(=O)Nc1ccccc1 [Compound 4b] | 5 | > 600 | No activity | 3.5 | 2.5 | No activity | – | – |
| O=C(CCCCCc1nc2ccccc2[nH]1)Nc1ccccc1 [Compound C1, 6-(1-H-benzo[d]imidazol-2-yl)-N-phenylhexanamide] | – | – | – | – | – | – | no activity | 3 |
